Data: patent US20190038588A1, “NOVEL CLASS OF COMPOUNDS FOR THE TREATMENT OF CARDIOVASCULAR DISEASE” (STICHTING KATHOLIEKE UNIVERSITEIT, priority 2016, published 2019)

Tests used:
[1] = biological target: T1, mitochondrial complex III (Mus musculus, UniProt P00158); experiment: Complex III enzyme activity in mitochondrial fractions of C2C12 cells (cytochrome c reduction at 550 nm); assay type: biochemical; details: compound at 100 μM; background by antimycin A (2.5 μM); n = 3 independent experiments
T1 construct: the supernatant containing the mitochondria was pelleted at 14,000 g; endogenous in cells; host or cells: C2C12 cells, mitochondrial fraction
Protocol: C2C12 pellets of 20·10^6 cells were snap frozen in liquid nitrogen and kept at −80° C. until use. For preparation of the mitochondrial fractions, tissues and cells were homogenized, resuspended in 10 mM Tris-HCl (pH 7.6), and snap frozen in aliquots as follows: cells were resuspended in 10 mM Tris-HCl and pottered, and sucrose was added (215 mM). The lysate was cleared of unbroken cells by centrifugation (10 minutes 600 g) after which the supernatant containing the mitochondria was pelleted at 14,000 g for 10 minutes, resuspended in 10 mM Tris-HCl (pH 7.6), and snap frozen in aliquots. Complex III enzyme activity was measured spectrophotometrically in duplicate as described before by determination of the cytochrome c reduction at 550 nm (Janssen et al., 2007; Mourmans et al., 1997; Rodenburg, 2011). For these measurements the following substrates were used: decylubiquinol (300 μM) and cytochrome c (50 μM). Background substraction was based on decylubiquinol auto-oxidation rates for FIG. 2, and on antimycin A (2.5 μM) for table 4. The enzyme activity was determined using the linear domain of the curve. These experiments were generally performed in small reaction volumes to increase throughput. Experiments in larger reaction volumes can improve reliability of obtained values, and are planned.

[2] = biological target: T2, catalytic domain of the human HMG-CoA reductase (Homo sapiens, UniProt P04035); experiment: HMG-CoA reductase activity and inhibition assay (Sigma CS-1090 kit, NADPH oxidation at 340 nm); assay type: biochemical; details: for HMGR activity (% of control) Mean (SEM): compound at 300 nM, n = 3 independent experiments
T2 construct: containing the catalytic domain of the human HMG-CoA reductase; purchased Sigma-Aldrich CS-1090
T2 sequence (P04035 426-888 limits assumed): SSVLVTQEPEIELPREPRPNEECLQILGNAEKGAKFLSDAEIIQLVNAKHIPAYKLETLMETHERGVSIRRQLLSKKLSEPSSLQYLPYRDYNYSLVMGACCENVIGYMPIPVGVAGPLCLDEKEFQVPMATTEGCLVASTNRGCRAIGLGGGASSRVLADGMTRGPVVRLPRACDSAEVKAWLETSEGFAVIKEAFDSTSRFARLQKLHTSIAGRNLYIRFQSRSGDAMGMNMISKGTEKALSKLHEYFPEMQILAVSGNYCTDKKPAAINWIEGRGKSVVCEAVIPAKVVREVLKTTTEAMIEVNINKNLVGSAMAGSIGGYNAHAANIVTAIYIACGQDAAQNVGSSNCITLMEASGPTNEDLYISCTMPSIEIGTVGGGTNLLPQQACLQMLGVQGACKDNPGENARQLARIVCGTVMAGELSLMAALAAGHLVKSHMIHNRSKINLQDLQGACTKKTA
Protocol: The human HMG-CoA reductase activity and inhibition assays were performed using the HMG-CoA reductase Assay Kit from Sigma-Aldrich (Sigma CS-1090), containing the catalytic domain of the human HMG-CoA reductase. Enzyme activity was determined spectrophotometrically, measuring the oxidation of NADPH at 340 nm. The reaction mixture contained: 0.13 mM HMG-CoA, HMG-CoA reductase, and 50 mM Tris-HCl, (pH 7.5). After 15 min incubation at 37° C., the reaction was started with the addition of 0.13 mM NADPH, and monitored for 30 min. The enzyme activity was determined using the linear domain of the curve. These experiments were generally performed in small reaction volumes to increase throughput. Experiments in larger reaction volumes can improve reliability of obtained values, and are planned.

Compound | complex III activity (% of control) Mean (SEM) [1] | HMGR activity (% of control) Mean (SEM) [2] | IC50 ([2]; dose-response curve of FIG. 2C, 95%-CI printed in the row below) [µM]
CC(C)c1nc(N(C)S(C)(=O)=O)nc(-c2ccc(F)cc2)c1/C=C/[C@@H](O)C[C@@H](O)CC(=O)NO [rosuvastatin hydroxamic acid, (3R,5S,E)-7-(4-(4-fluorophenyl)-6-isopropyl-2-(N-methylmethylsulfonamido)pyrimidin-5-yl)-N,3,5-trihydroxyhept-6-enamide] | 90.25 (7.98) % of control | 72.81 (9.03) % of control | 
CC(C)c1c(C(=O)Nc2ccccc2)c(-c2ccccc2)c(-c2ccc(F)cc2)n1CC[C@@H](O)C[C@@H](O)CC(=O)NO [atorvastatin hydroxamic acid, 1-((3R,5R)-3,5-dihydroxy-7-(hydroxyamino)-7-oxoheptyl)-5-(4-fluorophenyl)-2-isopropyl-N,4-diphenyl-1H-pyrrole-3-carboxamide] | 105.60 (13.57) % of control | 60.87 (4.50) % of control | 
CCC(C)(C)C(=O)O[C@H]1C[C@@H](C)C=C2C=C[C@H](C)[C@H](CC[C@@H](O)C[C@@H](O)Cc3nc(=O)o[nH]3)[C@H]21 [simvastatin oxo-oxadiazole, (1S,3R,7S,8S,8aR)-8-((3R,5)-3,5-dihydroxy-6-(5-oxo-2,5-dihydro-1,2,4-oxadiazol-3-yl)hexyl)-3,7-dimethyl-1,2,3,7,8,8a-hexahydronaphthalen-1-yl 2,2-dimethylbutanoate] | 74.37 (4.20) % of control | 73.44 (2.81) % of control | 
CC(C)c1nc(N(C)S(C)(=O)=O)nc(-c2ccc(F)cc2)c1/C=C/[C@@H](O)C[C@@H](O)CC#N [rosuvastatin nitrile, N-(5-((3S,5S,E)-6-cyano-3,5-dihydroxyhex-1-en-1-yl)-4-(4-fluorophenyl)-6-isopropylpyrimidin-2-yl)-N-methylmethanesulfonamide] | 95.96 (11.43) % of control | 102.50 (7.87) % of control | 
CCC(C)(C)C(=O)O[C@H]1C[C@@H](C)C=C2C=C[C@H](C)[C@H](CC[C@@H](O)C[C@@H](O)CC(=O)NC)[C@H]21 [simvastatin methylamide, (1S,3R,7S,8S,8aR)-8-((3R,5R)-3,5-dihydroxy-7-(methylamino)-7-oxoheptyl)-3,7-dimethyl-1,2,3,7,8,8a-hexahydronaphthalen-1-yl 2,2-dimethylbutanoate] | 50.43 (5.71) % of control | 92.40 (8.84) % of control | 
CC[C@H](C)C(=O)O[C@H]1C[C@@H](C)C=C2C=C[C@H](C)[C@H](CC[C@@H](O)C[C@@H](O)CC(N)=O)[C@H]21 [lovastatin amide, (1S,3R,7S,8S,8aR)-8-((3R,5R)-7-amino-3,5-dihydroxy-7-oxoheptyl)-3,7-dimethyl-1,2,3,7,8,8a-hexahydronaphthalen-1-yl (S)-2-methylbutanoate] | 104.10 (12.47) % of control | 102.30 (10.00) % of control | 
CCC(C)(C)C(=O)O[C@H]1C[C@@H](C)C=C2C=C[C@H](C)[C@H](CC[C@@H](O)C[C@@H](O)CC#N)[C@H]21 [simvastatin nitrile, (1S,3R,7S,8S,8aR)-8-((3R,5S)-6-cyano-3,5-dihydroxyhexyl)-3,7-dimethyl-1,2,3,7,8,8a-hexahydronaphthalen-1-yl 2,2-dimethylbutanoate] | 53.24 (1.53) % of control | 85.05 (10.36) % of control | 
CC(C)c1nc(N(C)S(C)(=O)=O)nc(-c2ccc(F)cc2)c1/C=C/[C@@H](O)C[C@@H](O)CC(=O)N(C)C [rosuvastatin dimethylamide, (3R,5S,E)-7-(4-(4-fluorophenyl)-6-isopropyl-2-(N-methylmethylsulfonamido)-pyrimidin-5-yl)-3,5-dihydroxy-N,N-dimethylhept-6-enamide] | 88.90 (7.89) % of control | 91.35 (15.32) % of control | 
CC(C)c1nc(N(C)S(C)(=O)=O)nc(-c2ccc(F)cc2)c1/C=C/[C@@H](O)C[C@@H](O)Cc1nnn[nH]1 [rosuvastatin tetrazole, N-(5-((3S,5S,E)-3,5-dihydroxy-6-(1H-tetrazol-5-yl)hex-1-en-1-yl)-4-(4-fluorophenyl)-6-isopropylpyrimidin-2-yl)-N-methylmethanesulfonamide] | 85.24 (4.09) % of control | 81.28 (4.70) % of control | 
CC(C)c1c(C(=O)Nc2ccccc2)c(-c2ccccc2)c(-c2ccc(F)cc2)n1CC[C@@H](O)C[C@@H](O)CC(N)=O [atorvastatin amide, 1-((3R,5R)-7-amino-3,5-dihydroxy-7-oxoheptyl)-5-(4-fluorophenyl)-2-isopropyl-N,4-diphenyl-1H-pyrrole-3-carboxamide] | 54.34 (7.70) % of control | 97.37 (3.89) % of control | 
CCC(C)(C)C(=O)O[C@H]1C[C@@H](C)C=C2C=C[C@H](C)[C@H](CC[C@@H](O)C[C@@H](O)CC(N)=O)[C@H]21 [simvastatin amide, (1S,3R,7S,8S,8aR)-8-((3R,5R)-7-amino-3,5-dihydroxy-7-oxoheptyl)-3,7-dimethyl-1,2,3,7,8,8a-hexahydronaphthalen-1-yl 2,2-dimethylbutanoate] | 73.77 (7.57) % of control | 110.10 (11.81) % of control | 
CCC(C)(C)C(=O)O[C@H]1C[C@@H](C)C=C2C=C[C@H](C)[C@H](CC[C@@H](O)C[C@@H](O)CC(=O)NO)[C@H]21 [simvastatin hydroxamic acid, (1S,3R,7S,8S,8aR)-8-((3R,5R)-3,5-dihydroxy-7-(hydroxyamino)-7-oxoheptyl)-3,7-dimethyl-1,2,3,7,8,8a-hexahydronaphthalen-1-yl 2,2-dimethylbutanoate] | 68.59 (5.73) % of control | 38.83 (5.19) % of control | 0.039
CC(C)c1nc(N(C)S(C)(=O)=O)nc(-c2ccc(F)cc2)c1/C=C/[C@@H](O)C[C@@H](O)CC(N)=O [rosuvastatin amide, (3R,5S,E)-7-(4-(4-fluorophenyl)-6-isopropyl-2-(N-methylmethylsulfonamido)-pyrimidin-5-yl)-3,5-dihydroxyhept-6-enamide] | 94.39 (6.41) % of control | 81.57 (10.29) % of control | 
CC(C)c1nc(N(C)S(C)(=O)=O)nc(-c2ccc(F)cc2)c1/C=C/[C@@H](O)C[C@@H](O)Cc1nc(=O)o[nH]1 [rosuvastatin oxo-oxadiazole, N-(5-((3S,5S,E)-3,5-dihydroxy-6-(5-oxo-2,5-dihydro-1,2,4-oxadiazol-3-yl)hex-1-en-1-yl)-4-(4-fluorophenyl)-6-isopropylpyrimidin-2-yl)-N-methylmethane Sulfonamide] | 85.85 (10.62) % of control | 88.17 (4.21) % of control | 
CNC(=O)C[C@H](O)C[C@H](O)/C=C/c1c(-c2ccc(F)cc2)nc(N(C)S(C)(=O)=O)nc1C(C)C [rosuvastatin methylamide, (3R,5S,E)-7-(4-(4-fluorophenyl)-6-isopropyl-2-(N-methylmethylsulfonamido)-pyrimidin-5-yl)-3,5-dihydroxy-N-methylhept-6-enamide] | 83.54 (5.98) % of control | 82.82 (12.67) % of control | 
